Earlier results as cited in US11583508B2, “Use of mitoxantrone liposome for treating non-Hodgkin's lymphoma” (CSPC ZHONGQI PHARMACEUTICAL TECHNOLOGY (SHIJIAZHUANG) CO., …, priority 2018, dated 2023).

Test system: relapsed/refractory PTCL (RR-PTCL)
Details: monotherapy, second-line

| SMILES | Primary endpoint: (ORR, %) |
| --- | --- |
| O=C(/C=C/c1cccc(S(=O)(=O)Nc2ccccc2)c1)NO [Belinostat] | 25.8% |
| C#CCC(Cc1cnc2nc(N)nc(N)c2n1)c1ccc(C(=O)N[C@@H](CCC(=O)O)C(=O)O)cc1 (some centres unmarked) [Pralatrexate] | 27% |
